# Assay results: patent publication US20260015574A1, “METHODS FOR SHORTENING LAG PHASE DURATION IN MICROORGANISMS” (YEDA RESEARCH AND DEVELOPMENT CO. LTD., priority 2022, published 2026)
# Assays:
# [1] = test system: P. inhibens ΔmetE mutant; assay: Lag phase shortening in ΔmetE mutant; format: cell-based, Phaeobacter inhibens; conditions: 2 μM DMSP, minimal media
# Procedure: For creation of P. inhibens knockout cells, ˜1,000 bp regions upstream and downstream of the gene of interest were amplified by PCR (Phusion High-Fidelity DNA polymerase, Thermo Scientific), using primers that added homologous regions to gentamycin or kanamycin resistance markers. The fragments were assembled and cloned into the TOPOII vector (Invitrogen) using restriction-free cloning (Peleg Y. & Unger T., 2014), generating a knockout (KO) plasmid. P. inhibens electrocompetent cells (300 μl) were transformed with 10 μg of the constructed KO plasmid by a pulse of 1.8 kV (Bio Rad). Cells were selected on ½YTSS agar plates containing 30 μg/ml gentamycin or 150 μg/ml kanamycin. Successful knockouts in single cell clones were verified by PCR and sanger sequencing.
# P. inhibens harbors another methionine synthase encoded by metE (FIGS. 1C and 4; gene 65). To test the possible contribution of this enzyme to lag phase shortening the inventors knocked-out the gene and examined the performance of the mutant strain. […] To further rule out the involvement of MetE in lag phase shortening, the inventors perturbed the function of MetE using an inhibitor of its methyl donor. To produce methionine, MetE utilizes 5-methyl-tetrahydrofolate (THF) as a methyl donor (Pejchal and Ludwig, 2005). THF is central in the process of bacterial nucleotide production (Quinlivan et al., 2000).
# [2] = test system: E. coli; assay: Lag phase shortening in E. coli; format: cell-based, Escherichia coli; conditions: treatment with algal metabolites
# From the text: To explore whether lag phase shortening is a general mechanism among bacteria, the inventors tested the effect of methylated compounds in bacteria with different lifestyles. […] Since methylated compounds are a hallmark of photosynthesizing organisms, the inventors next tested a variety of bacteria that are plant-associated. […] Finally, to establish the prevalence of lag phase shortening among bacteria, the inventors tested the model bacterium E. coli. This bacterium is not commonly found associated with photosynthesizing organisms, and thus, is unlikely to respond to algal metabolites. […] The synchrony between specific compounds and different groups of bacteria may reflect the natural context […].
# [3] = test system: betaine-homocysteine S-methyltransferase (Bmt); assay: Methionine synthesis in vitro assay with purified Bmt; format: biochemical, P. inhibens; conditions: 200 μM methyl group donor, 2 mM homocysteine, 30° C., 2 h, fluorometric
# Procedure: The expression plasmid pET29b encoding the bmt gene with a Strep-tag II peptide sequence fused to the N-terminus was purchased from Twist Biosciences. The methionine synthase gene mmuM from E. coli was PCR-amplified (Phusion High-Fidelity DNA polymerase, Thermo Scientific) and cloned into the pET29b vector using the CPEC technique (Quan J. & Tian J., 2009). Resulting clones were validated by sanger sequencing. E. coli BL21 electrocompetent cells were transformed with […] of the expression vectors, and cells were selected on LB agar plates containing 50 μg/ml kanamycin. Bacteria were grown in Tryptone Yeast extract Glucose (TYG) medium supplemented with 50 μg/ml kanamycin at 37° C. to mid-log phase (OD600 0.7). Then, cultures were induced with 0.2 mM of IPTG for 3 hours at 37° C. Bacteria were harvested by centrifugation (4,000 rpm for 15 min at 4° C.) and cells were resuspended in 20 mL of NP buffer (50 mM NaH2PO4, 300 mM NaCl, pH 8) and 100 μl of 10× Protease inhibitor (Sigma). […] The Protein concentration was determined with the Protein Assay Dye Reagent Concentrate (BioRad) following the manufacturer's instructions. […]
# The methionine synthesis in vitro assay was based on the protocol of Ranocha et al., 2000. […] Methionine formation was measured from 20 μl of the in vitro reactions using the Fluorometric Methionine Assay Kit (Sigma; results depicted in FIG. 14). […]
structure (smiles),measurement,setting,value
"C[S+](C)CCC(=O)[O-] [DMSP, dimethylsulfoniopropionate]",lag phase shortening,[1],exhibited lag phase shortening similar to wild-type bacteria
same,lag phase shortening,[2],did not shorten the lag phase
same,methionine formation with DMSP as methyl group donor,[3],catalyzes the production of methionine
